Results reported in the NIST ThermoML archive (doi:10.1016/j.fluid.2010.01.002).

Test: mn = molality of the nth substance listed, in mol/kg
Conditions: 101 kPa, Liquid, Vibrating tube method

COS(=O)(=O)[O-].Cn1cc[n+](C)c1 [1,3-dimethylimidazolium methylsulfate] + O
mass density [kg/m3]
Conditions | 298.15 K | 308.15 K | 318.15 K | 328.15 K
m1 = 0.0095 | 997.56 | 994.57 | 990.75 | 986.12
m1 = 0.018 | 998.03 | 995.02 | 991.2 | 986.56
m1 = 0.0236 | 998.32 | 995.31 | 991.48 | 986.84
m1 = 0.0316 | 998.76 | 995.73 | 991.89 | 987.25
m1 = 0.0414 | 999.29 | 996.24 | 992.39 | 987.74
m1 = 0.0611 | 1000.34 | 997.25 | 993.38 | 988.72
m1 = 0.0788 | 1001.28 | 998.16 | 994.27 | 989.59
m1 = 0.0914 | 1001.94 | 998.8 | 994.9 | 990.2
m1 = 0.1165 | 1003.24 | 1000.06 | 996.14 | 991.43
m1 = 0.1441 | 1004.65 | 1001.43 | 997.49 | 992.77
m1 = 0.1816 | 1006.53 | 1003.27 | 999.3 | 994.58
m1 = 0.2172 | 1008.25 | 1004.99 | 1001 | 996.25
m1 = 0.2724 | 1010.92 | 1007.59 | 1003.6 | 998.8
m1 = 0.3964 | 1016.79 | 1013.25 | 1009.26 | 1004.4
m1 = 0.4557 | 1019.55 | 1015.89 | 1011.88 | 1006.99
m1 = 0.5756 | 1024.98 | 1021.08 | 1017.04 | 1012.19
m1 = 0.7108 | 1030.77 | 1026.7 | 1022.63 | 1017.83
m1 = 1.826 | 1071.65 | 1065.12 | 1061.7 | 1057
